# In ChEMBL document CHEMBL1201861, “Genomics of Drug Sensitity in Cancer screening data, Wellcome Trust Sanger Institute”:
# Columns and labels:
# DSH1 = assay: cells; assay type: functional, cell-based, Homo sapiens; conditions: Homo sapiens, DSH1;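 note: growth inhibition of human DSH1 cells, measured with a cell viability readout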
# Description: SANGER: Inhibition of human DSH1 cell growth in a cell viability assay.
# DU-145 = assay: cells; assay type: functional, cell-based, Homo sapiens; conditions: Homo sapiens, DU-145
# Description: SANGER: Inhibition of human DU-145 cell growth in a cell viability assay.
# EPLC-272H = assay: cells; assay type: functional, cell-based; conditions: Homo sapiens
# Description: SANGER: Inhibition of human EPLC-272H cell growth in a cell viability assay.
# GB-1 = assay: cells; assay type: functional, cell-based, Homo sapiens; conditions: Homo sapiens, GB-1;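 note: growth of GB-1 cells judged by a viability assay, IC50 marks the concentration inhibiting growth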
# Description: SANGER: Inhibition of human GB-1 cell growth in a cell viability assay.
# H-EMC-SS = assay: cells; assay type: functional, cell-based; conditions: Homo sapiens
# Description: SANGER: Inhibition of human H-EMC-SS cell growth in a cell viability assay.
# H4 = assay: cells; assay type: functional, cell-based; conditions: Homo sapiens
# Description: SANGER: Inhibition of human H4 cell growth in a cell viability assay.
# HDLM-2 = assay: cells; assay type: functional, cell-based; conditions: Homo sapiens;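 note: cell viability assay measuring suppression of HDLM-2 proliferation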
# Description: SANGER: Inhibition of human HDLM-2 cell growth in a cell viability assay.
# HSC-4 = assay: cells; assay type: functional, cell-based, Homo sapiens; conditions: Homo sapiens, HSC-4;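 note: growth inhibition of human HSC-4 cells, read out with a cell viability assay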
# Description: SANGER: Inhibition of human HSC-4 cell growth in a cell viability assay.
# HT-1080 = assay: cells; assay type: functional, cell-based, Homo sapiens; conditions: Homo sapiens, HT-1080
# Description: SANGER: Inhibition of human HT-1080 cell growth in a cell viability assay.
# HT-144 = assay: cells; assay type: functional, cell-based, Homo sapiens; conditions: Homo sapiens, HT-144
# Description: SANGER: Inhibition of human HT-144 cell growth in a cell viability assay.
# HT55 = assay: cells; assay type: functional, cell-based, Homo sapiens; conditions: Homo sapiens, HT55;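 note: cell viability readout measuring growth inhibition of human HT55 cells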
# Description: SANGER: Inhibition of human HT55 cell growth in a cell viability assay.
# J82 = assay: cells; assay type: functional, cell-based; conditions: Homo sapiens;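 note: growth inhibition of J82 cells, read out with a cell viability assay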
# Description: SANGER: Inhibition of human J82 cell growth in a cell viability assay.
# LS-123 = assay: cells; assay type: functional, cell-based, Homo sapiens; conditions: Homo sapiens, LS-123
# Description: SANGER: Inhibition of human LS-123 cell growth in a cell viability assay.
# MEL-JUSO = assay: cells; assay type: functional, cell-based, Homo sapiens; conditions: Homo sapiens, MEL-JUSO;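 note: growth inhibition of human MEL-JUSO cells, read out with a cell viability assay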
# Description: SANGER: Inhibition of human MEL-JUSO cell growth in a cell viability assay.
# NCI-H1395 = assay: cells; assay type: functional, cell-based, Homo sapiens; conditions: Homo sapiens, NCI-H1395;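 note: cell viability assay read-out quantifying reduced proliferation of human NCI-H1395 cells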
# Description: SANGER: Inhibition of human NCI-H1395 cell growth in a cell viability assay.
# NCI-H1573 = assay: cells; assay type: functional, cell-based; conditions: Homo sapiens;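 note: growth inhibition of NCI-H1573 cells, read out with a cell viability assay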
# Description: SANGER: Inhibition of human NCI-H1573 cell growth in a cell viability assay.
# NCI-H1792 = assay: cells; assay type: functional, cell-based, Homo sapiens; conditions: Homo sapiens, NCI-H1792;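 note: growth inhibition of human NCI-H1792 cells, read out as cell viability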
# Description: SANGER: Inhibition of human NCI-H1792 cell growth in a cell viability assay.
# NCI-H441 = assay: cells; assay type: functional, cell-based; conditions: Homo sapiens;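 note: growth inhibition of NCI-H441 cells, read out with a cell viability assay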
# Description: SANGER: Inhibition of human NCI-H441 cell growth in a cell viability assay.
# PA-1 = assay: cells; assay type: functional, cell-based, Homo sapiens; conditions: Homo sapiens, PA-1;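 note: IC50 for suppression of PA-1 cell proliferation, determined with a cell viability read-out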
# Description: SANGER: Inhibition of human PA-1 cell growth in a cell viability assay.
# PC-14 = assay: cells; assay type: functional, cell-based, Homo sapiens; conditions: Homo sapiens, PC-14;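 note: cell viability assay measuring inhibition of PC-14 cell growth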
# Description: SANGER: Inhibition of human PC-14 cell growth in a cell viability assay.
# SK-MEL3 = assay: cells; assay type: functional, cell-based, Homo sapiens, SK-MEL-3; conditions: Homo sapiens, SK-MEL3;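 note: growth inhibition of human SK-MEL-3 cells, read out with a cell viability assay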
# Description: SANGER: Inhibition of human SK-MEL-3 cell growth in a cell viability assay.
# SNU-423 = assay: cells; assay type: functional, cell-based, Homo sapiens; conditions: Homo sapiens, SNU-423
# Description: SANGER: Inhibition of human SNU-423 cell growth in a cell viability assay.
# A3-KAW = assay: cells; assay type: functional, cell-based; conditions: Homo sapiens;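 note: growth inhibition of human A3-KAW cells, read out with a cell viability assay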
# Description: SANGER: Inhibition of human A3-KAW cell growth in a cell viability assay.
# AU565 = assay: cells; assay type: functional, cell-based, Homo sapiens; conditions: Homo sapiens, AU565;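 note: cell viability assay measuring growth inhibition of human AU565 cells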
# Description: SANGER: Inhibition of human AU565 cell growth in a cell viability assay.
# TE-6 = assay: cells; assay type: functional, cell-based, Homo sapiens; conditions: Homo sapiens, TE-6;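 note: growth inhibition of TE-6 cells, read out with a cell viability assay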
# Description: SANGER: Inhibition of human TE-6 cell growth in a cell viability assay.
# ZR-75-30 = assay: cells; assay type: functional, cell-based; conditions: Homo sapiens;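 note: growth inhibition of ZR-75-30 cells, measured with a cell viability readout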
# Description: SANGER: Inhibition of human ZR-75-30 cell growth in a cell viability assay.
# no-11 = assay: cells; assay type: functional, cell-based, Homo sapiens; conditions: Homo sapiens;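 note: growth inhibition of human NO-11 cells, read out with a cell viability assay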
# Description: SANGER: Inhibition of human no-11 cell growth in a cell viability assay.
# CGTH-W-1 = assay: cells; assay type: functional, cell-based, Homo sapiens; conditions: Homo sapiens, CGTH-W-1;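 note: growth inhibition of human CGTH-W-1 cells measured by cell viability assay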
# Description: SANGER: Inhibition of human CGTH-W-1 cell growth in a cell viability assay.
# COLO-680N = assay: cells; assay type: functional, cell-based, Homo sapiens; conditions: Homo sapiens, COLO-680N;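 note: cell viability assay used to measure inhibition of COLO-680N cell growth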
# Description: SANGER: Inhibition of human COLO-680N cell growth in a cell viability assay.
# G-361 = assay: cells; assay type: functional, cell-based, Homo sapiens; conditions: Homo sapiens, G-361
# 23132-87 = assay: cells; assay type: functional, cell-based, Homo sapiens; conditions: Homo sapiens
# Description: SANGER: Inhibition of human 23132-87 cell growth in a cell viability assay.
# CPC-N = assay: cells; assay type: functional, cell-based; conditions: Homo sapiens;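 note: growth inhibition of CPC-N cells, with a cell viability assay as the readout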
# Description: SANGER: Inhibition of human CPC-N cell growth in a cell viability assay.
# DMS-153 = assay: cells; assay type: functional, cell-based; conditions: Homo sapiens
# Description: SANGER: Inhibition of human DMS-153 cell growth in a cell viability assay.
# DU-4475 = assay: cells; assay type: functional, cell-based; conditions: Homo sapiens
# Description: SANGER: Inhibition of human DU-4475 cell growth in a cell viability assay.
# EB2 = assay: cells; assay type: functional, cell-based; conditions: Homo sapiens;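 note: growth inhibition of EB2 cells, read out with a cell viability assay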
# Description: SANGER: Inhibition of human EB2 cell growth in a cell viability assay.
# LC4-1 = assay: cells; assay type: functional, cell-based; conditions: Homo sapiens;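 note: growth inhibition of LC4-1 cells, read out with a cell viability assay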
# Description: SANGER: Inhibition of human LC4-1 cell growth in a cell viability assay.
# MC-CAR = assay: cells; assay type: functional, cell-based; conditions: Homo sapiens;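 note: growth inhibition of the human MC-CAR cell line, read out by a cell viability assay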
# Description: SANGER: Inhibition of human MC-CAR cell growth in a cell viability assay.
# MOLT-13 = assay: cells; assay type: functional, cell-based; conditions: Homo sapiens;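 note: IC50 for suppression of MOLT-13 cell growth, read out with a cell viability assay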
# Description: SANGER: Inhibition of human MOLT-13 cell growth in a cell viability assay.
# NALM-6 = assay: cells; assay type: functional, cell-based; conditions: Homo sapiens;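 note: growth inhibition of NALM-6 cells, read out with a cell viability assay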
# Description: SANGER: Inhibition of human NALM-6 cell growth in a cell viability assay.
# NCCIT = assay: SANGER: Inhibition of human NCCIT cell growth in a cell viability assay.; assay type: functional, cell-based
# NCI-H1522 = assay: cells; assay type: functional, cell-based; conditions: Homo sapiens;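 note: growth inhibition of NCI-H1522 cells, read out with a cell viability assay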
# Description: SANGER: Inhibition of human NCI-H1522 cell growth in a cell viability assay.
# NCI-H524 = assay: cells; assay type: functional, cell-based; conditions: Homo sapiens;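 note: growth inhibition of human NCI-H524 cells, read out through a cell viability assay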
# Description: SANGER: Inhibition of human NCI-H524 cell growth in a cell viability assay.
# NCI-H64 = assay: cells; assay type: functional, cell-based; conditions: Homo sapiens;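 note: growth inhibition of NCI-H64 cells, read out with a cell viability assay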
# Description: SANGER: Inhibition of human NCI-H64 cell growth in a cell viability assay.
# NCI-H748 = assay: cells; assay type: functional, cell-based; conditions: Homo sapiens;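 note: growth inhibition of NCI-H748 cells, measured by a cell viability assay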
# Description: SANGER: Inhibition of human NCI-H748 cell growth in a cell viability assay.
# NCI-H889 = assay: cells; assay type: functional, cell-based; conditions: Homo sapiens;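 note: cell growth inhibition of the cell line, read out with a viability assay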
# Description: SANGER: Inhibition of human NCI-H889 cell growth in a cell viability assay.
# REH = assay: cells; assay type: functional, cell-based; conditions: Homo sapiens;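 note: growth inhibition of REH cells determined with a cell viability read-out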
# Description: SANGER: Inhibition of human REH cell growth in a cell viability assay.
# RPMI 8402 = assay: SANGER: Inhibition of human RPMI-8402 cell growth in a cell viability assay.; assay type: functional, cell-based
# SIG-M5 = assay: cells; assay type: functional, cell-based; conditions: Homo sapiens;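 note: cell viability assay read-out, measuring how strongly growth of cultured human SIG-M5 cells is inhibited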
# Description: SANGER: Inhibition of human SIG-M5 cell growth in a cell viability assay.
# SR = assay: cells; assay type: functional, cell-based; conditions: Homo sapiens
# Description: SANGER: Inhibition of human SR cell growth in a cell viability assay.
# ST486 = assay: SANGER: Inhibition of human ST486 cell growth in a cell viability assay.; assay type: functional, cell-based
# TALL-1 = assay: cells; assay type: functional, cell-based; conditions: Homo sapiens;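 note: growth inhibition of cultured human TALL-1 cells, read out by a cell viability assay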
# Description: SANGER: Inhibition of human TALL-1 cell growth in a cell viability assay.
# BC-3 = assay: cells; assay type: functional, cell-based; conditions: Homo sapiens;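 note: cell viability assay measuring growth inhibition of human BC-3 cells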
# Description: SANGER: Inhibition of human BC-3 cell growth in a cell viability assay.
# TE-441-T = assay: cells; assay type: functional, cell-based; conditions: Homo sapiens
# Description: SANGER: Inhibition of human TE-441-T cell growth in a cell viability assay.
# THP-1 = assay: cells; assay type: functional, cell-based; conditions: Homo sapiens;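 note: growth inhibition of THP-1 cells, read out via a cell viability assay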
# Description: SANGER: Inhibition of human THP-1 cell growth in a cell viability assay.
# TUR = assay: cells; assay type: functional, cell-based; conditions: Homo sapiens;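 note: growth inhibition of human TUR cells, read out with a cell viability assay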
# Description: SANGER: Inhibition of human TUR cell growth in a cell viability assay.
# U-698-M = assay: cells; assay type: functional, cell-based; conditions: Homo sapiens
# Description: SANGER: Inhibition of human U-698-M cell growth in a cell viability assay.
# CMK = assay: cells; assay type: functional, cell-based; conditions: Homo sapiens;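 note: growth inhibition of CMK cells, read out as cell viability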
# Description: SANGER: Inhibition of human CMK cell growth in a cell viability assay.
structure (smiles),measurement,setting,value
CN(Cc1cnc2nc(N)nc(N)c2n1)c1ccc(C(=O)N[C@@H](CCC(=O)O)C(=O)O)cc1 [METHOTREXATE],IC50,DSH1,> 0.2 µM
same,IC50,DU-145,> 0.2 µM
same,IC50,EPLC-272H,> 0.2 µM
same,IC50,GB-1,> 0.2 µM
same,IC50,H-EMC-SS,> 0.2 µM
same,IC50,H4,> 0.2 µM
same,IC50,HDLM-2,0.01 µM
same,IC50,HSC-4,> 0.2 µM
same,IC50,HT-1080,> 0.2 µM
same,IC50,HT-144,> 0.2 µM
same,IC50,HT55,> 0.2 µM
same,IC50,J82,> 0.2 µM
same,IC50,LS-123,> 0.2 µM
same,IC50,MEL-JUSO,> 0.2 µM
same,IC50,NCI-H1395,> 0.2 µM
same,IC50,NCI-H1573,> 0.2 µM
same,IC50,NCI-H1792,0.114 µM
same,IC50,NCI-H441,> 0.2 µM
same,IC50,PA-1,> 0.2 µM
same,IC50,PC-14,> 0.2 µM
same,IC50,SK-MEL3,> 0.2 µM
same,IC50,SNU-423,> 0.2 µM
same,IC50,A3-KAW,0.00892 µM
same,IC50,AU565,0.0613 µM
same,IC50,TE-6,> 0.2 µM
same,IC50,ZR-75-30,> 0.2 µM
same,IC50,no-11,> 0.2 µM
same,IC50,CGTH-W-1,0.0312 µM
same,IC50,COLO-680N,> 0.2 µM
Cn1cc(C2=C(c3ccc(Cl)cc3Cl)C(=O)NC2=O)c2ccccc21 [SB-216763],IC50,DSH1,> 10 µM
same,IC50,DU-145,> 10 µM
same,IC50,EPLC-272H,> 10 µM
same,IC50,G-361,> 10 µM
same,IC50,GB-1,> 10 µM
same,IC50,H-EMC-SS,> 10 µM
same,IC50,H4,> 10 µM
same,IC50,HDLM-2,0.21 µM
same,IC50,HSC-4,> 10 µM
same,IC50,HT-1080,> 10 µM
same,IC50,HT-144,> 10 µM
same,IC50,J82,> 10 µM
same,IC50,LS-123,> 10 µM
same,IC50,MEL-JUSO,> 10 µM
same,IC50,NCI-H1395,> 10 µM
same,IC50,NCI-H1573,> 10 µM
same,IC50,NCI-H1792,> 10 µM
same,IC50,NCI-H441,> 10 µM
same,IC50,PA-1,> 10 µM
same,IC50,PC-14,> 10 µM
same,IC50,SK-MEL3,> 10 µM
same,IC50,23132-87,> 10 µM
same,IC50,A3-KAW,> 10 µM
same,IC50,AU565,> 10 µM
same,IC50,TE-6,> 10 µM
same,IC50,ZR-75-30,> 10 µM
same,IC50,no-11,> 10 µM
same,IC50,CGTH-W-1,> 10 µM
same,IC50,COLO-680N,> 10 µM
CCC(=O)N1CCN(c2ccc(-n3c(=O)ccc4cnc5ccc(-c6cnc7ccccc7c6)cc5c43)cc2C(F)(F)F)CC1 [TORIN1],IC50,CPC-N,1.16 µM
same,IC50,DMS-153,> 1.2 µM
same,IC50,DSH1,0.0717 µM
same,IC50,DU-4475,0.0917 µM
same,IC50,EB2,> 1.2 µM
same,IC50,GB-1,0.0155 µM
same,IC50,HDLM-2,> 1.2 µM
same,IC50,HT-144,0.0145 µM
same,IC50,LC4-1,0.0874 µM
same,IC50,LS-123,0.0594 µM
same,IC50,MC-CAR,0.554 µM
same,IC50,MOLT-13,0.302 µM
same,IC50,NALM-6,0.011 µM
same,IC50,NCCIT,0.543 µM
same,IC50,NCI-H1395,> 1.2 µM
same,IC50,NCI-H1522,0.649 µM
same,IC50,NCI-H524,0.587 µM
same,IC50,NCI-H64,0.303 µM
same,IC50,NCI-H748,0.189 µM
same,IC50,NCI-H889,> 1.2 µM
same,IC50,REH,> 1.2 µM
same,IC50,RPMI 8402,0.0779 µM
same,IC50,SIG-M5,0.089 µM
same,IC50,SR,0.0637 µM
same,IC50,ST486,0.106 µM
same,IC50,TALL-1,0.229 µM
same,IC50,A3-KAW,0.0622 µM
same,IC50,BC-3,0.082 µM
same,IC50,TE-441-T,1.04 µM
same,IC50,TE-6,0.681 µM
same,IC50,THP-1,> 1.2 µM
same,IC50,TUR,> 1.2 µM
same,IC50,U-698-M,> 1.2 µM
same,IC50,no-11,0.014 µM
same,IC50,CGTH-W-1,0.184 µM
same,IC50,CMK,0.0154 µM
